Assay results from patent EP0553186B1, “METHOD FOR PRODUCING T H?-I[…] T LYMPHOCYTES” (IMMUNEX CORPORATION, priority 1990, dated 1992).

System: CD8^+ T cell clone T81
Test: Outgrowth of T81 CTL under G418 drug selection
Assay type: cell-based, mouse
Conditions: parental T81 cells, doses used for selection
Experimental: • A. Selection of CD8^+T cell clone T81 transduced with retroviral vector L.IL-1RSN encoding murine IL-1R. The retroviral vector L.IL-1RSN encoding the murine IL-1 receptor was introduced into the tumor specific CD3^+, CD8^+ T cell clone T81 as follows. T81 is specific for an antigen expressed on the K1735 mouse melanoma cell line. T81 was propagated by stimulation every 8-10 days with tumor antigen and irradiated syngeneic splenocytes as feeder cells. Recombinant IL-2 (50 U/ml) was added to the cultures 48 hours following stimulation. […] The cells were analyzed for M5 binding on a Beckton-Dickinson FACscan analyzer. […] The IL-1 receptors on the T81 cells infected with the L.IL-1RSN vector were analyzed for ^125I-IL-1α binding as previously described (Dower et al., Nature (Lond) 324 :266,1986). […] Nonspecific binding of ^125I-IL-1 was measured by incubation in the presence of an excess of unlabelled IL-1. At the end of the incubation, bound and free ^125I-IL-1 were separated by centrifugation over a phthalate oil mixture and the amount of radiolabel in each fraction measured. The data were corrected for non-specific binding and then analyzed by nonlinear least square fitting to estimate the number of IL-1R/cell. […]

Compound: CN[C@@H]1[C@@H](O)[C@@H](O[C@@H]2[C@@H](O)[C@H](O[C@H]3O[C@H]([C@@H](C)O)[C@@H](O)[C@H](O)[C@H]3N)[C@@H](N)C[C@H]2N)OC[C@]1(C)O [G418]
- toxicity of G418 to cells: toxic to the parental cells
